Test results taken from patent US9757350B2, “Small molecule inhibitors of replication protein A that also act synergistically with cisplatin” (Indiana University Research and Technology Corp., priority 2010, dated 2017).
Entries after “also recorded” stand apart in the source; their conditions may differ.

What was measured:
p21 = experiment: Quantitative real-time PCR of p21 mRNA; type: cell-based; details: A549, versus untreated control
Procedure: Real-Time PCR—A549 cells were plated in 10 cm dishes at 1.5×10^6, allowed to adhere, and treated for 24-48 hours with cisplatin or SMIs (5 μM). Referring now to FIG. 16B, Western blot of cells treated sequentially. For sequential treatment, A549 cells were exposed to cisplatin for 24 hours followed by the addition of SMIs for another 24 hours as above. Referring now to FIG. 16A, A549 cells were treated sequentially or concurrently with cisplatin (5 μM) and MCI13E or MCI13F for 24 total hours. Lysates were probed for p53-ser15-phosphorylation or phosphorylated-ATM. GAPDH was probed as a loading control. Concurrently treated cells were incubated simultaneously with both cisplatin and MCIs for 24 hours. RNA was extracted using RNeasy minikit (Qiagen, Germantown, Md.) per manufacturer's protocol. cDNA was generated using Applied Biosystem's (ABI) High Capacity RNA-to-cDNA kit. Validated gene primer/probe sets, also from ABI, were used for Quantitative Real Time-PCR. ABI's ΔΔCT Relative Quantification methodology was used for the analyses (applied Biosystems). Data were normalized to the housekeeping gene GAPDH and calibrated to the mock treated samples. Results presented are the average of two separate cell treatments/RNA isolations with duplicate Taqman Assays per RNA sample set.
Referring now to FIG. 15A. Plot of Quantitative Real Time PCR analyses of mRNA expression changes of A549 cells treated with MCI13E, MCI13F and Cisplatin. Data represents the average of four separate Q-RT PCR Assays. Genes of interest were normalized to GAPDH transcript levels, and are presented as fold changes relative to untreated cell samples. Cisplatin treatment increases transcription of DDB2 (A). Referring now to FIG. 15B. Bar graph of P21/GAPDH measured in cells subjected to different treatment schemes. Referring now to FIG. 15C. Bar graph of XPC/GAPDH measured under different treatment regimes XPC Concurrent MCI/Cisplatin treated cells show a decrease in gene transcription when compared to cells treated with Cisplatin alone (24 hour).

[1] = test system: NSCLC cell lines A549 and H460; details: reference 1; cited from earlier work
EcSSB = target: T1, EcSSB (Escherichia coli, UniProt P0AGE0); experiment: E. coli SSB DNA-binding EMSA; details: 0-200 μM, pre-incubated with protein
T1 construct: purchased Enzymatics, Beverly, Mass
T1 sequence (P0AGE0 2-178): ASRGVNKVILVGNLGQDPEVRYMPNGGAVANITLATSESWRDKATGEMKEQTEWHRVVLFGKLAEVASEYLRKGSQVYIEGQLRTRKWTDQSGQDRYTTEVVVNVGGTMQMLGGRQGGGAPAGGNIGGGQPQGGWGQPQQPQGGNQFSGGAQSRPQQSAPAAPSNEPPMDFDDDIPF
Procedure: In order to study the specificity of the CheSS19, and MCI13E/F compounds, their effects on two ssDNA binding proteins which use OB-folds for recognition and binding of ssDNA, E. coli SSB (6) and the Schizosaccharomyces pombe Pot1(DBD) domain (11) were studied. The EcSSB protein is a non-sequence-specific ssDNA binding protein, whereas the SpPot1(DBD) protein is a telomere-specific, ssDNA binding protein. In these experiments, protein was pre-incubated with the SMIs, as was done for the RPA experiments, prior to addition of radiolabeled ssDNA to the reactions.
Referring now to FIG. 6B. CheSS19 titration in EcSSB DNA-binding reactions. CheSS19 (0, 25, 50, 100, and 200 μM) was pre-incubated with EcSSB and binding reactions were carried out. Referring now to FIG. 6C. Titration of MCI13E and MCI13F in EcSSB DNA-binding reactions. Concentrations of MCI13E/F used were: 0, 25, 50, 100, and 200 μM. In all panels, the ‘Free’ ssDNA is indicated with an arrow and the ‘Bound’ ssDNA is indicated by brackets. All reactions were performed in the same order and manner as the RPA binding reactions. EcSSB binding was unaffected by CheSS19 and the MCI13E and MCI13F compounds […].
EMSAs were performed similarly to those for the RPA constructs, with the following exceptions. Reactions contained 25 nM of 5′-[^32P]-labeled 3Pc3 ssDNA and 3.3 nM (assuming homotetramer formation) SSB protein (Enzymatics, Beverly, Mass.). Reactions (20 μL) were carried out in 20 mM HEPES, pH 7.5, 1 mM DTT, 0.01% NP-40, 100 mM NaCl, and resolved by 6% native polyacrylamide gel electrophoresis at 25 mA for 2 hours. Gels were dried and quantified via phosphorimager analysis and ImageQuant software (Molecular Dynamics).

[2] = target: T2, full-length heterotrimeric RPA (Homo sapiens, UniProt P27694); experiment: EMSA in vitro DNA binding assay, full-length heterotrimeric RPA; details: ssDNA substrate
T2 construct: Human full-length, un-tagged heterotrimeric RPA (RPA) was purified as previously describe; made in house
T2 sequence (P27694 whole entry): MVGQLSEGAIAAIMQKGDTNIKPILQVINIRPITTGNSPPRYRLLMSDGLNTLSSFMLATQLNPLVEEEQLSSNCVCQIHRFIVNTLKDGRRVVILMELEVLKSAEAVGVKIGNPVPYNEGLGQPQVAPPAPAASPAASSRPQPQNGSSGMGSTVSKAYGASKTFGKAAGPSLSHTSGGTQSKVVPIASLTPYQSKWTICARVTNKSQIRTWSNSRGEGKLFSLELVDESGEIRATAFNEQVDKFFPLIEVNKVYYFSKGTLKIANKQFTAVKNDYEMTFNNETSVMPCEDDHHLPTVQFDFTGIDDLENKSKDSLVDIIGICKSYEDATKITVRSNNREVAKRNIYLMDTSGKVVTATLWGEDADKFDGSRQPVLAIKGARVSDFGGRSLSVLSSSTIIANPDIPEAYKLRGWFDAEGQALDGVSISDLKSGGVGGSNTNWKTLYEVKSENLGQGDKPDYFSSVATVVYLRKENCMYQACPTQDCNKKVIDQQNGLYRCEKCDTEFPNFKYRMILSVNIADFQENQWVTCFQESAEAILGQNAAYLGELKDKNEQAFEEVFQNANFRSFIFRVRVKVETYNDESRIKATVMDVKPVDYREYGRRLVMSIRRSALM
T2 sequence (P15927 whole entry partner): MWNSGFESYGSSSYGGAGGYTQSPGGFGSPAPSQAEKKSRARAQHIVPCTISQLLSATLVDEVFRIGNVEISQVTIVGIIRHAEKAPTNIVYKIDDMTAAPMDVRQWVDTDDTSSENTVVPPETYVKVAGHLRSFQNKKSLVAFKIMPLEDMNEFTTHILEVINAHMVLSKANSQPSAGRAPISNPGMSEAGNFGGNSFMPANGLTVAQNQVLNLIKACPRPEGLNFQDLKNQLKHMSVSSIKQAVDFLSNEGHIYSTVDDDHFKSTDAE
T2 sequence (P35244 whole entry partner): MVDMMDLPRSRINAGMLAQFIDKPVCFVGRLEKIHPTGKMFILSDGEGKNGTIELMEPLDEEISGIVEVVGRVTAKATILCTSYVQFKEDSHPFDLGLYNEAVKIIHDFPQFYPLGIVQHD
Procedure: RPA. Human full-length, un-tagged heterotrimeric RPA (RPA) was purified as previously describe.
RPA and DBD-A/B Binding. EMSAs were performed as previously described (22) using a 30-base purine rich ssDNA substrate (3Pc3). Briefly, reactions contained 12.5 nM 5′-[^32P]-labeled 3Pc3 ssDNA and the indicated concentrations of RPA or DBD-A/B. Protein was pre-incubated with the indicated concentration of SMI for 30 minutes at 37° C. DNA was then added and reactions incubated for an additional 5 minutes at room temperature in a final reaction volume of 40 μL. Reactions were then resolved on a 6% native polyacrylamide gel and electrophoresed at 170 volts for 1 hour. Gels were dried and quantified via phosphorimager analysis and ImageQuant software (Molecular Dynamics).

RPA DBD-A/B [3] = target: T3, RPA DBD-A/B (Homo sapiens, UniProt P27694); experiment: EMSA DNA binding assay, RPA DBD-A/B construct
T3 construct: made in house; host or cells: E. coli BL21(DE3)
T3 sequence (P27694 181-422 limits assumed): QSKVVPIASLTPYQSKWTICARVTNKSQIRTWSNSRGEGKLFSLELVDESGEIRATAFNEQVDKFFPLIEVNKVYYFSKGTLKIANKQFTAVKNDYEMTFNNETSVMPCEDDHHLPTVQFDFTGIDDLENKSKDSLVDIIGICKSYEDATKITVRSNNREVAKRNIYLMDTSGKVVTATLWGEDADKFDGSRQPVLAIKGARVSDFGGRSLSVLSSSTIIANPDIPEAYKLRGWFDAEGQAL
Procedure: DBD-A/B. The sequence encoding the RPA p70 DNA binding domains A and B were subcloned from the hrRPA plasmid (provided by Dr. Marc Wold, University of Iowa) into the pET15b (Novagen) vector and the protein was expressed in BL21(DE3) cells (Stratagene) as previously described. Briefly, cells were grown to an OD600 of 0.8, induced with 0.5 mM isopropyl-1-thio-β-D-galactopyranoside (IPTG) at 37° C. for 2-3 hours. Small scale DBD-A/B preparations were obtained from 1 L cultures and following induction, cells were harvested by centrifugation at 700×g for 30 minutes at 4° C. The pellets were suspended in Buffer A (20 mM Tris, pH 7.5, 10% glycerol, 500 mM NaCl, 10 mM β-mercaptoethanol (BME) and 1 μg/mL phenylmethanesulfonylfluoride (PMSF), leupeptin and pepstatin) at 1 mL/gram of cells. The cells were lysed by sonication and insoluble material sedimented at 15,000×g for 30 minutes at 4° C. The supernatant was then loaded onto a 10 mL phosphocellulose column, equilibrated with Buffer A, and the flow-through material collected. Imidazole was added to 5 mM to the flow through which was then loaded onto a 2 mL nickel-NTA-agarose column. The column was then washed with Buffer A containing 50 mM imidazole after which protein was eluted from the column using a gradient from 50-500 mM imidazole. Fractions were analyzed for protein content using Bradford and SDS-PAGE analysis in addition to assessment of DNA binding activity as determined by anisotropy. Fractions containing the DBD-A/B protein were pooled and dialyzed overnight in Buffer B (1 mM HEPES, pH 7.2, 10 mM dithiothreitol (DTT), 50 mM NaCl and 1 μg/mL PMSF, pepstatin and leupeptin) and aliquots stored at −80° C.
RPA and DBD-A/B Binding. EMSAs were performed as previously described (22) using a 30-base purine rich ssDNA substrate (3Pc3). […] Gels were dried and quantified via phosphorimager analysis and ImageQuant software (Molecular Dynamics).

RPA DBD-A/B [4] = target: T3, RPA DBD-A/B; experiment: Reversibility of DBD-A/B inhibition: dialysis, then fluorescence polarization; type: binding; details: overnight dialysis, then FP with F-dT12
Procedure: In an experiment reported herein, DBD-A/B was incubated with CheSS19 and then the reaction mix dialyzed overnight to remove dissociable inhibitor. […] Referring now to FIG. 3D. Bar graph showing results of fluorescence polarization analysis of CheSS19 inactivated RPA DBD-A/B. Referring now to FIG. 3D, RPA DBD-A/B was pre-incubated with vehicle (1% DMSO) or CheSS19 (1 pmol in 1% DMSO) for 30 minutes at 37° C. Following incubation, the reaction mix was dialyzed versus H1 buffer overnight at 4° C. The protein was recovered and DNA binding activity measured by FP analysis of binding to an F-dT12 substrate was performed as described in “Methods”. Bar 1, DNA control, Bar 2, control vehicle treated DBD-A/B, Bar 3, Chess19 treated DBD-A/B. The data represent the mean and range of two independent experiments.
Fluorescence polarization experiments were preformed as previously described (21). SMIs were diluted in H1 buffer (10 mM HEPES, pH 7.2, 1 mM DTT, 0.01% NP-40 and 100 mM NaCl) and the final DMSO concentration was kept below 1%.
In order to assess the reversibility of select SMIs, the indicated SMI was pre-incubated with RPA or the DBD-A/B construct for 30 minutes at room temperature. […] The resulting protein was recovered and concentration determined by Bradford analysis. […]

[5] = target: T2, full-length heterotrimeric RPA; details: reference 9; cited from earlier work

N.N.[Cl][Pt][Cl] [cisplatin, cis-diamminedichloroplatinum (II)]
p21 mRNA expression, single agent (p21): dramatic increase in p21 mRNA expression

CCOc1ccc2cc(C3CC(c4ccc(Br)cc4)=NN3C(=O)CCC(=O)O)c(Cl)nc2c1 (stereo not shown) [TDRL-505]
Mode of cell death (earlier report) [1]: cytotoxic via a non-apoptotic pathway

O=C1OC(=O)[C@H]2C3C=CC(CC3)[C@@H]12 [CheSS19]
Effect on EcSSB ssDNA binding (EcSSB): unaffected | Inhibition of full-length RPA DNA binding [2]: potent inhibitory activity | Inhibition of DBD-A/B DNA binding (RPA DBD-A/B [3]): potent inhibitory activity; also recorded: inhibits the DNA binding activity of the DBD-A/B construct with similar potency to the heterotrimeric RPA preparation | Reversibility of DBD-A/B inhibition (RPA DBD-A/B [4]): inhibiting DBD-A/B in an irreversible manner | Reversibility of full-length RPA inhibition (earlier report) [5]: irreversible
